≈ marks a conversion by molar mass, not a printed value.
Tests used:
[1] = Solubility in water at 25° C.; format: physicochemical
leukemia L-1210 = assay: Antitumor activity against leukemia L-1210 implanted in BDF1 mice (ILS, 60 days survivors); format: in vivo
Source text: Test compounds were given to BDF1 mice 24 hrs after implantation of 10^6 cells of leukemia L-1210 in each animal, through single intraperitoneal administration, intraperitoneal administration for 5 successive days, single oral administration or oral administration for 5 successive days, whereupon the increase in life span (referred to as "ILS") and number of 60 days survivors of test animals were estimated, said test of antitumor activity being that according to the method of the National Cancer Center, Tokyo [A. Hoshi et al: Farmashia, 9 (1973), 464]. In the tests, the compounds were dissolved in physiological saline solution just before administration.
^a i.p.: intraperitoneal administration p.o: oral administration
D1 : single administration D1~5 : administration for 5
^b percentage calculated from mean survival time over control
^c survivors/six animals

[2] = Diabetogenic activity (blood glucose concentration after intravenous administration); format: in vivo, male Wister rats
Procedure: 40-96 mg/kg of the test compounds were administered intravenously to starved male Wister rats weighing 240-260 g each, and the blood glucose concentrations of the test animals were estimated by the glucose exidase method [L. L. Saloman et al: Anal. Chem., 31 (1959), 453], in which test the compounds were dissolved in physiological saline solution just before administration. […]

Acute toxicity (LD50) = format: in vivo, male Wister rats; conditions: for LD50 at 168 h: rat, in vivo, after 1 week
Procedure: Test compounds were dissolved in physiological saline solution just before their dosage and administered to male Wister rats, intraperitoneally, intravenously and orally. After 1 week, the LD50 of each compound was calculated from the mortality of the test animals by the Lichfield-Wilcoxon Method.
i.v.: intravenous administration

[3] = Effect on respiration, blood pressure, heart rate and electrocardiogram; format: in vivo, Beagle dogs
Procedure: Beagle dogs of both sexes weighing about 10 kg were anesthetized with pentobarbital sodium (30 mg/kg, i.v.), and immobilized in the supine position. Test compounds dissolved in physiological saline solution were injected into the brachial veins of the animals and the arteries at cannulated positions were treated with heparin sodium as anticoagulant.
The respiration rate of each animal was estimated with a respirometer (Nihonkohden, RP-3) through a tracheal cannula, the blood pressure with an electro-haemodynamometer (Nihonkohden, MP-4T) attached surgically to the femoral artery, and the heart rate with a pulse-rate tachometer (Nihonkohden, RT-2) through the trigger pulse of the blood pressure.

[4] = Absorption and excretion of 14C-labelled compounds; format: in vivo, rats
Procedure: The carbon atom at the 2-position of the chloroethyl group (i.e. ClCH2 CH2 -) of 6DCNU and 6MCαG was labelled with radioactive ^14 C, and the absorption and excretion of these compounds were tested using rats.

[5] = tested on: Bacillus subtilis ATCC 6633; assay: Antibacterial activity, broth-dilution method; format: cell-based; conditions: ATCC6633
Source text: (§1) Using 6DCNU and 6MCαG, minimum inhibiting concentrations (referred to as "MIC") for various kinds of bacteria were estimated by means of the broth-dilution method.

[6] = tested on: Escherichia coli NIHJ JC-2; assay: Antibacterial activity, broth-dilution method; format: cell-based; conditions: NIHJJC2
Source text: as §1

[7] = tested on: Klebsiella pneumoniae IFM 3008; assay: Antibacterial activity, broth-dilution method; format: cell-based; conditions: IFM3008
Source text: as §1

[8] = tested on: Mycobacterium smegmatis ATCC 607; assay: Antibacterial activity, broth-dilution method; format: cell-based; conditions: Mycolicibacterium smegmatis, ATCC607
Source text: as §1

[9] = tested on: Pseudomonas aeruginosa IFO 3080; assay: Antibacterial activity, broth-dilution method; format: cell-based; conditions: IFO3080
Source text: as §1

Sarcina lutea ATCC 9341 = assay: Antibacterial activity, broth-dilution method; format: cell-based; conditions: Micrococcus luteus, ATCC9341
Source text: as §1

Shigella sonnei = assay: Antibacterial activity, broth-dilution method; format: cell-based
Source text: as §1

[10] = tested on: Staphylococcus aureus FDA 209P JC-1; assay: Antibacterial activity, broth-dilution method; format: cell-based; conditions: FDA209P
Source text: as §1

[11] = tested on: Streptococcus faecalis AHU 1085; assay: Antibacterial activity, broth-dilution method; format: cell-based; conditions: Enterococcus faecalis, AHU1085
Source text: as §1

## O=NN(CCCl)C(=O)NC[C@H]1OC(O)[C@H](O)[C@@H](O)[C@@H]1O (stereo partly drawn) [Example 6DCNU, 3-(D-glucopyranos-6-yl)-1-(2-chloroethyl)-1-nitrosourea]
[1]; amount soluble in 1 ml water at 25° C.
  solubility: 750 mg/mL (≈ 2390 mM)
[1]; water, 25° C.
  solubility in water, comparison in words: higher than that of both DCNU and 2MCαG and is almost equal to that of 6MCαG
Leukemia L-1210; 3.2 mg/kg/day, i.p. D1~5
  ILS: > 310%
  Survivors (60 days): 2/6
Leukemia L-1210; 6.3 mg/kg/day, i.p. D1~5
  ILS: > 410%
  Survivors (60 days): 4/6
Leukemia L-1210; 12.5 mg/kg/day, i.p. D1
  ILS: > 426%
  Survivors (60 days): 4/6
Leukemia L-1210; 12.5 mg/kg/day, i.p. D1~5
  ILS: > 520%
  Survivors (60 days): 5/6
Leukemia L-1210; 12.5 mg/kg/day, p.o. D1~5
  ILS: > 123%
Leukemia L-1210; 15.0 mg/kg/day, i.p. D1~5
  ILS: > 650%
  Survivors (60 days): 6/6
Leukemia L-1210; 20.0 mg/kg/day, i.p. D1~5
  ILS: > 670%
  Survivors (60 days): 6/6
Leukemia L-1210; 25.0 mg/kg/day, i.p. D1
  ILS: > 561%
  Survivors (60 days): 5/6
Leukemia L-1210; 25.0 mg/kg/day, i.p. D1~5
  ILS: > 540%
  Survivors (60 days): 5/6
Leukemia L-1210; 25.0 mg/kg/day, p.o. D1~5
  ILS: > 260%
  Survivors (60 days): 2/6
Leukemia L-1210; 30.0 mg/kg/day, i.p. D1~5
  ILS: > 315%
  Survivors (60 days): 3/6
Leukemia L-1210; 35.0 mg/kg/day, p.o. D1~5
  ILS: > 390%
  Survivors (60 days): 3/6
Leukemia L-1210; 40.0 mg/kg/day, i.p. D1~5
  ILS: > 225%
  Survivors (60 days): 2/6
Leukemia L-1210; 50.0 mg/kg/day, i.p. D1
  ILS: > 606%
  Survivors (60 days): 5/6
Leukemia L-1210; 50.0 mg/kg/day, p.o. D1~5
  ILS: > 442%
  Survivors (60 days): 3/6
Leukemia L-1210; 70.0 mg/kg/day, i.p. D1
  ILS: > 321%
  Survivors (60 days): 3/6
Leukemia L-1210; 70.0 mg/kg/day, p.o. D1~5
  ILS: > 370%
  Survivors (60 days): 3/6
Leukemia L-1210; 100.0 mg/kg/day, i.p. D1
  ILS: -3%
Leukemia L-1210; 100.0 mg/kg/day, p.o. D1~5
  ILS: > 246%
  Survivors (60 days): 2/6
Leukemia L-1210; 150.0 mg/kg/day, i.p. D1
  ILS: -10%
Leukemia L-1210; 200.0 mg/kg/day, i.p. D1
  ILS: -34%
Leukemia L-1210; L-1210, BDF1 mice
  antitumor activity, comparison in words: superior to that of DCNU, GANU and 2MCαG, and is almost equal to that of 6MCαG
Leukemia L-1210; mouse, in vivo
  antitumor activity, in words: excellent antitumor activity
Leukemia L-1210; oral administration
  antitumor activity in oral administration, in words: high activity equal to that of 6MCαG in oral administration
[2]; 40 mg/kg i.v., 0 hr after treatment
  Blood Glucose Concentration: 70.4 mg/dL
[2]; 40 mg/kg i.v., 2 hr after treatment
  Blood Glucose Concentration: 73.3 mg/dL
[2]; 40 mg/kg i.v., 4 hr after treatment
  Blood Glucose Concentration: 67.7 mg/dL
[2]; 40 mg/kg i.v., 7 hr after treatment
  Blood Glucose Concentration: 68.2 mg/dL
[2]; 40 mg/kg i.v., 10 hr after treatment
  Blood Glucose Concentration: 68.3 mg/dL
[2]; 40 mg/kg i.v., 24 hr after treatment
  Blood Glucose Concentration: 69.9 mg/dL
[2]; 40 mg/kg i.v., 48 hr after treatment
  Blood Glucose Concentration: 73.8 mg/dL
[2]; 60 mg/kg i.v., 0 hr after treatment
  Blood Glucose Concentration: 72.0 mg/dL
[2]; 60 mg/kg i.v., 2 hr after treatment
  Blood Glucose Concentration: 74.2 mg/dL
[2]; 60 mg/kg i.v., 4 hr after treatment
  Blood Glucose Concentration: 78.3 mg/dL
[2]; 60 mg/kg i.v., 7 hr after treatment
  Blood Glucose Concentration: 76.8 mg/dL
[2]; 60 mg/kg i.v., 10 hr after treatment
  Blood Glucose Concentration: 79.2 mg/dL
[2]; 60 mg/kg i.v., 24 hr after treatment
  Blood Glucose Concentration: 78.7 mg/dL
[2]; 60 mg/kg i.v., 48 hr after treatment
  Blood Glucose Concentration: 79.4 mg/dL
[2]; 77 mg/kg i.v., 0 hr after treatment
  Blood Glucose Concentration: 72.4 mg/dL
[2]; 77 mg/kg i.v., 2 hr after treatment
  Blood Glucose Concentration: 75.3 mg/dL
[2]; 77 mg/kg i.v., 4 hr after treatment
  Blood Glucose Concentration: 75.8 mg/dL
[2]; 77 mg/kg i.v., 7 hr after treatment
  Blood Glucose Concentration: 79.8 mg/dL
[2]; 77 mg/kg i.v., 10 hr after treatment
  Blood Glucose Concentration: 76.2 mg/dL
[2]; 77 mg/kg i.v., 24 hr after treatment
  Blood Glucose Concentration: 78.2 mg/dL
[2]; 77 mg/kg i.v., 48 hr after treatment
  Blood Glucose Concentration: 80.5 mg/dL
[2]; i.v., rats
  blood glucose concentrations versus control, in words: substantially the same blood glucose concentrations as that in the control
[2]; rat, in vivo
  diabetogenic activity, in words: low diabetogenic activity
Acute toxicity (LD50); ip
  LD50 at 168 h: 90 mg/kg
Acute toxicity (LD50); iv
  LD50 at 168 h: 85 mg/kg
Acute toxicity (LD50); po
  LD50 at 168 h: 132 mg/kg
Acute toxicity (LD50); rats
  LD50, comparison in words: higher than that of the other known compounds
[3]; Beagle dogs
  maximum dosage without effect, comparison in words: highest dosage value
[3]; dog, in vivo, iv, injected into brachial veins, anesthetized Beagle dogs, read-out: maximum dosage not effected on respiration, blood pressure, heart rate and electrocardiogram
  NOAEL: 70 mg/kg
[4]; rats, 14C-labelled
  absorption, in words: absorbed well
  excretion rate, intravenous versus oral administration, in words: almost the same excretion rates
  main route of excretion, in words: excreted mainly in the urine
[4]; versus 6MCαG
  excretion in faeces, comparison in words: excreted more than 6MCαG in faeces
  excretion velocity, comparison in words: more rapid than that of 6MCαG
  toxicity inferred from excretion, in words: less toxic than 6MCαG
[5]
  MIC: > 200 µg/mL
[6]
  MIC: > 200 µg/mL
[7]
  MIC: > 200 µg/mL
[8]
  MIC: > 200 µg/mL
[9]
  MIC: > 200 µg/mL
Sarcina lutea ATCC 9341
  MIC: > 200 µg/mL
Shigella sonnei
  MIC: > 200 µg/mL
[10]
  MIC: > 200 µg/mL
[11]
  MIC: > 200 µg/mL

— patent publication US4156777A, “Process for producing glucopyranose-nitrosourea compounds and novel compounds included therein” (Tokyo Tanabe Company, Limited, priority 1977, dated 1979)
